{"source": "patent US8124793B2", "about": "“Derivatives of ethylene methanedisulfonate as cancer chemotherapeutic agents” (priority 2007, dated 2012)", "assay_type_in_all_cases": "cell-based", "key": {"HL-60 (TB)": {"tested_on": "HL-60 (TB)", "assay": "NCI screen, growth of human tumor cells: Leukemia HL-60 (TB)", "conditions": "HL-60 (TB) (Leukemia), 10^−4 molar", "protocol": "(§1) In the NCI screening process, each compound was tested and described by a minimum of 60 data points. The test data include, but are not limited to the type of cancer, the molar concentration used in the screen, and the percent growth of the cancer. In some cases, NMR and elemental analysis were used for structural assignment."}, "SR": {"tested_on": "SR", "assay": "NCI screen, growth of human tumor cells: Leukemia SR", "conditions": "SR (Leukemia), 10^−4 molar", "how_it_was_run": "(§2)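 Percent-growth read-out from the NCI cancer cell screen; data annotated by cancer type and molar concentration, ≥60 points per compound.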"}, "HOP-92": {"tested_on": "HOP-92", "assay": "NCI screen, growth of human tumor cells: Non-Small Cell Lung HOP-92", "conditions": "HOP-92 (Non-Small Cell Lung), 10^−4 molar", "how_it_was_run": "as §2"}, "NCI-H460": {"tested_on": "NCI-H460", "assay": "NCI screen, growth of human tumor cells: Non-Small Cell Lung NCI-H460", "conditions": "NCI-H460 (Non-Small Cell Lung), 10^−4 molar", "how_it_was_run": "as §2"}, "SW620": {"tested_on": "SW620", "assay": "NCI screen, growth of human tumor cells: Colon Cancer SW620", "protocol": "as §1"}, "SF-268": {"tested_on": "SF-268", "assay": "NCI screen, growth of human tumor cells: CNS Cancer SF-268", "conditions": "SF-268 (CNS Cancer), 10^−4 molar", "how_it_was_run": "as §2"}, "SF-295": {"tested_on": "SF-295", "assay": "NCI screen, growth of human tumor cells: CNS Cancer SF-295", "how_it_was_run": "as §2"}, "SF-539": {"tested_on": "SF-539", "assay": "NCI screen, growth of human tumor cells: CNS Cancer SF-539", "conditions": "SF-539 (CNS Cancer), 10^−4 molar", "how_it_was_run": "as §2"}, "SNB-75": {"tested_on": "SNB-75", "assay": "NCI screen, growth of human tumor cells: CNS Cancer SNB-75", "conditions": "SNB-75 (CNS Cancer), 10^−4 molar", "how_it_was_run": "as §2"}, "U-251": {"tested_on": "U-251", "assay": "NCI screen, growth of human tumor cells: CNS Cancer U-251", "conditions": "U-251 (CNS Cancer), 10^−4 molar", "how_it_was_run": "as §2"}, "LOXIMVI": {"tested_on": "LOXIMVI", "assay": "NCI screen, growth of human tumor cells: Melanoma LOXIMVI", "conditions": "for % Growth: LOXIMVI", "protocol": "as §1"}, "UACC-62": {"tested_on": "UACC-62", "assay": "NCI screen, growth of human tumor cells: Melanoma UACC-62", "how_it_was_run": "as §2"}, "786-0": {"tested_on": "786-0", "assay": "NCI screen, growth of human tumor cells: Renal Cancer 786-0", "conditions": "786-0 (Renal Cancer), 10^−4 molar", "how_it_was_run": "as §2"}, "ACHN": {"tested_on": "ACHN", "assay": "NCI screen, growth of human tumor cells: Renal Cancer ACHN", "conditions": "ACHN (Renal Cancer), 10^−4 molar", "how_it_was_run": "as §2"}, "CAKI-1": {"tested_on": "CAKI-1", "assay": "NCI screen, growth of human tumor cells: Renal Cancer CAKI-1", "conditions": "CAKI-1 (Renal Cancer), 10^−4 molar", "how_it_was_run": "as §2"}, "UO-31": {"tested_on": "UO-31", "assay": "NCI screen, growth of human tumor cells: Renal Cancer UO-31", "conditions": "UO-31 (Renal Cancer), 10^−4 molar", "how_it_was_run": "as §2"}, "MCF 7": {"tested_on": "MCF 7", "assay": "NCI screen, growth of human tumor cells: Breast Cancer MCF 7", "conditions": "MCF 7 (Breast Cancer), 10^−4 molar", "how_it_was_run": "as §2"}, "MCF7/ADR-RES": {"tested_on": "MCF7/ADR-RES", "assay": "NCI screen, growth of human tumor cells: Breast Cancer MCF7/ADR-RES", "conditions": "MCF7/ADR-RES (Breast Cancer), 10^−4 molar", "how_it_was_run": "as §2"}, "BT-549": {"tested_on": "BT-549", "assay": "NCI screen, growth of human tumor cells: Breast Cancer BT-549", "conditions": "BT-549 (Breast Cancer), 10^−4 molar", "how_it_was_run": "as §2"}, "T-47D": {"tested_on": "T-47D", "assay": "NCI screen, growth of human tumor cells: Breast Cancer T-47D", "conditions": "T-47D (Breast Cancer), 10^−4 molar", "protocol": "as §1"}, "human cancer cells": {"tested_on": "human cancer cells", "assay": "NCI screen summary over the cancers tested (negative growth of human cancer cells)", "conditions": "10^−4 M conc.; cancers with negative growth / cancers tested", "protocol": "as §1\nThe derivatives in the tables are grouped using the same category as in the tables 1-6."}}}
{"compound": "C[Si](C)(OCCS(=O)(=O)O)C1S(=O)(=O)OCCOS1(=O)=O", "note": "[NSC 674991]", "values": [{"measurement": "percent of growth of human tumor cells", "setting": "HL-60 (TB)", "result": 15, "unit": "%"}, {"measurement": "percent of growth of human tumor cells", "setting": "SR", "result": 20, "unit": "%"}, {"measurement": "percent of growth of human tumor cells", "setting": "HOP-92", "result": 22, "unit": "%"}, {"measurement": "percent of growth of human tumor cells", "setting": "NCI-H460", "result": 22, "unit": "%"}, {"measurement": "% Growth", "setting": "SW620; SW620, 10^−4 molar", "result": "−49", "unit": "%"}, {"measurement": "% Growth", "setting": "SW620; SW620, 10^−5 molar", "result": 34, "unit": "%"}, {"measurement": "% Growth", "setting": "SW620; SW620, 10^−6 molar", "result": 25, "unit": "%"}, {"measurement": "percent of growth of human tumor cells", "setting": "SF-268", "result": 11, "unit": "%"}, {"measurement": "% Growth", "setting": "SF-295; SF-295, 10^−4 molar", "result": "−31", "unit": "%"}, {"measurement": "% Growth", "setting": "SF-295; SF-295, 10^−5 molar", "result": 31, "unit": "%"}, {"measurement": "percent of growth of human tumor cells", "setting": "SF-539", "result": 4, "unit": "%"}, {"measurement": "percent of growth of human tumor cells", "setting": "SNB-75", "result": "−24", "unit": "%"}, {"measurement": "percent of growth of human tumor cells", "setting": "U-251", "result": 9, "unit": "%"}, {"measurement": "percent of growth of human tumor cells", "setting": "LOXIMVI; LOXIMVI (Melanoma), 10^−4 molar", "result": 10, "unit": "%"}, {"measurement": "% Growth", "setting": "LOXIMVI; 10^−4 molar", "result": "−90", "unit": "%"}, {"measurement": "% Growth", "setting": "LOXIMVI; 10^−5 molar", "result": 63, "unit": "%"}, {"measurement": "% Growth", "setting": "UACC-62; UACC-62, 10^−4 molar", "result": 5, "unit": "%"}, {"measurement": "% Growth", "setting": "UACC-62; UACC-62, 10^−5 molar", "result": 57, "unit": "%"}, {"measurement": "percent of growth of human tumor cells", "setting": "786-0", "result": 16, "unit": "%"}, {"measurement": "percent of growth of human tumor cells", "setting": "ACHN", "result": "−10", "unit": "%"}, {"measurement": "percent of growth of human tumor cells", "setting": "CAKI-1", "result": "−8", "unit": "%"}, {"measurement": "percent of growth of human tumor cells", "setting": "UO-31", "result": 29, "unit": "%"}, {"measurement": "percent of growth of human tumor cells", "setting": "MCF 7", "result": 22, "unit": "%"}, {"measurement": "percent of growth of human tumor cells", "setting": "MCF7/ADR-RES", "result": 20, "unit": "%"}, {"measurement": "percent of growth of human tumor cells", "setting": "BT-549", "result": 11, "unit": "%"}, {"measurement": "percent of growth of human tumor cells", "setting": "T-47D", "result": 18, "unit": "%"}, {"measurement": "Percentage of cancers showing negative growth cancers tested", "setting": "human cancer cells", "result": "10^−4 M conc. = 6/21 = 28.6%"}]}
